25 compounds from ChEMBL document CHEMBL2449286, “Structure-activity data for a series of P-glycoprotein inhibitors (Supplementary Data to CHEMBL1142990)” can be followed below.

The assay deals with ATP-dependent translocase ABCB1 (Homo sapiens, UniProt P08183).
Chain of ATP-dependent translocase ABCB1 (P08183 whole entry): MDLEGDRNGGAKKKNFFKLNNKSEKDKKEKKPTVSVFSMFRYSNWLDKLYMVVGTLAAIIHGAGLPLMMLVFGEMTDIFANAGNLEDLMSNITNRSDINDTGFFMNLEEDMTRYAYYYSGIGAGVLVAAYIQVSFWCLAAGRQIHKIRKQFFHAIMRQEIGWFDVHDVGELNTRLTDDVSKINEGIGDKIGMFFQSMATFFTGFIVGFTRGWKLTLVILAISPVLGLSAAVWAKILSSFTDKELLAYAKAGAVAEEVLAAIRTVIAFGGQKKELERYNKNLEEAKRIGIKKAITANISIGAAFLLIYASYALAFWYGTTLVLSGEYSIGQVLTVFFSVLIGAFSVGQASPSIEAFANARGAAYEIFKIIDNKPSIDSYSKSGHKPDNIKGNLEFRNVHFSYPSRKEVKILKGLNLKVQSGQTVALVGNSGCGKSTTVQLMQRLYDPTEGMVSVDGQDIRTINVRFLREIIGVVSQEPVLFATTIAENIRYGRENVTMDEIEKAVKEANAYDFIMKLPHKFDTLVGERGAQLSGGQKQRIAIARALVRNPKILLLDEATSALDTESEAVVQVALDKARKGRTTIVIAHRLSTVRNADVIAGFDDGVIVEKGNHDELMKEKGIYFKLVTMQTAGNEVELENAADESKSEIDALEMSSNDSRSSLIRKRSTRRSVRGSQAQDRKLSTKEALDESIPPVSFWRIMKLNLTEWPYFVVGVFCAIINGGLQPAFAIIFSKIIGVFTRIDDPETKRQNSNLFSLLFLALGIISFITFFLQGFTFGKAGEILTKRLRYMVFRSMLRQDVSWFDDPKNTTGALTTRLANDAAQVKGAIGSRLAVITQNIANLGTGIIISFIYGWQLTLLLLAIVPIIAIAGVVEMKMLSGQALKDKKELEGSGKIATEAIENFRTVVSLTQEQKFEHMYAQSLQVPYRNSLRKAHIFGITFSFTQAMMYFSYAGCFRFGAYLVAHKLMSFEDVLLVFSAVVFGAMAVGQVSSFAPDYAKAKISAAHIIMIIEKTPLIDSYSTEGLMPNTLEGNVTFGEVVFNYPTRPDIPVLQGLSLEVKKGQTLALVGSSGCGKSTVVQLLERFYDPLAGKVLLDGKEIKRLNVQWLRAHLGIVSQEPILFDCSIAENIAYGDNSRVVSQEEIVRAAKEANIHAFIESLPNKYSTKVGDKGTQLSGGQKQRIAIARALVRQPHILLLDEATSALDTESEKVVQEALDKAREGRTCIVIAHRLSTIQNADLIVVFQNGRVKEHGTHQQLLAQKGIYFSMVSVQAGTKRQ
As a reminder, the EC50 is the concentration that produces a half-maximal response. On to `Cc1ccccc1N1CCN(C[C@@H](O)COc2ccccc2C(=O)CCc2ccccc2)CC1`, for which the midpoint of the response, the EC50, lay at 26.9 nM.

The compound `CCCNC[C@@H](O)COc1ccsc1C(=O)CCc1ccccc1` showed a concentration giving a half-maximal response (EC50) of 813 nM. To `CC(C)[C@H](N[C@@H]1c2cc(C#N)ccc2OC(C)(C)[C@H]1O)C(=O)O` belongs 4790 nM.

On to `Cc1ccccc1N1CCN(C[C@@H](O)COc2ccccc2C(=O)CCc2ccc(N(C)C)cc2)CC1`, for which the response was half-maximal at 12.9 nM (EC50).

`COc1cccc(N2CCN(C[C@@H](O)COc3ccccc3C(=O)CCc3ccccc3)CC2)c1` gave an EC50 of 676 nM. To `CC(C)N(C[C@@H](O)COc1ccccc1C(=O)CCc1cccc2ccccc12)C(C)C` belongs 468 nM; to `CC(=O)c1ccc(OC[C@H](O)CNCCC(c2ccccc2)c2ccccc2)cc1`, 178 nM. To `O=C(c1ccccc1)c1cccc(OC[C@H](O)CN2CCN(c3ccc(F)cc3)CC2)c1` belongs 575 nM; to `CCC(=O)c1ccccc1OC[C@H](O)CNCCC(c1ccccc1)c1ccccc1`, 120 nM; to `Cc1c(C(=O)c2cccs2)c(=O)n(-c2ccccc2)n1C[C@H](O)CNC(C)(C)C`, 72400 nM. To `CC(C)[C@@H](N[C@@H]1c2cc(C#N)ccc2OC(C)(C)[C@H]1O)C(=O)OC(C)(C)C` belongs 4680 nM; to `Cc1cccc(N2CCN(C[C@@H](O)COc3cccc(C(=O)c4ccccc4)c3)CC2)c1C`, 174 nM; to `CC(=O)c1ccccc1OC[C@H](O)CN1CCC(Cc2ccccc2)CC1`, 355 nM.

For `Cc1ccccc1N1CCN(C[C@@H](O)COc2ccccc2C(=O)CCc2ccc(Cl)cc2)CC1`, a half-maximal effect (EC50) was put at 19.1 nM.

On to `CC1(C)Oc2ccc(C#N)cc2[C@H](N(CCO)Cc2ccccc2)[C@H]1O`, for which the EC50 was 5370 nM. Compared with the last compound, the EC50 is about 280-fold higher. The figure for `O=C(c1ccccc1)c1ccccc1OC[C@H](O)CN1CCN(c2ccc(F)cc2)CC1` is 148 nM; for `Cc1ccccc1N1CCN(C[C@@H](O)COc2cccc(C(=O)CCc3ccccc3)c2)CC1` it is 74.1 nM. Consider `CC(C)[C@H]1C(=O)O[C@H]2[C@@H](c3cc(C#N)ccc3OC2(C)C)N1C`, for which the EC50 was 47900 nM.

Turning to `C[C@H]1C(=O)O[C@H]2[C@@H](c3cc(C#N)ccc3OC2(C)C)N1C`, the EC50 is 47900 nM.

As for `CC(C)[C@H]1C(=O)O[C@@H]2[C@H](c3cc(C#N)ccc3OC2(C)C)N1C`, the midpoint of the response, the EC50, lay at 16600 nM. To `O=C(CCc1ccccc1)c1ccccc1OC[C@H](O)CN1CCN(c2ccccc2)CC1` belongs 617 nM; to `CC(C)[C@@H](CO)N[C@@H]1c2cc(C#N)ccc2OC(C)(C)[C@H]1O`, 53700 nM; to `O[C@@H](COc1ccccc1[C@H](O)CCc1ccccc1)CN1CCCCC1`, 851 nM. The figure for `Cc1ccc(C(=O)N2c3ccccc3[C@H](N3CCN(Cc4ccccc4)CC3)[C@@H](O)[C@H]2C)cc1` is 427 nM; for `CCOc1ccc(N2C(=O)c3ccccc3N[C@H]2c2ccc(N(C)C)cc2)cc1` it is 25100 nM.
